ChEMBL document CHEMBL1126355, “The basis for slowly reversible inhibition of dehydroquinate synthase: a case of mistaken identity?” (Bioorg Med Chem Lett, 1992)

Assays:
[1] = target: T1, 3-dehydroquinate synthase (Escherichia coli K-12) (UniProt P07639); assay: Type of inhibition of 3-dehydroquinate synthase was determined; R - Slowly reversible
T1 sequence (whole entry): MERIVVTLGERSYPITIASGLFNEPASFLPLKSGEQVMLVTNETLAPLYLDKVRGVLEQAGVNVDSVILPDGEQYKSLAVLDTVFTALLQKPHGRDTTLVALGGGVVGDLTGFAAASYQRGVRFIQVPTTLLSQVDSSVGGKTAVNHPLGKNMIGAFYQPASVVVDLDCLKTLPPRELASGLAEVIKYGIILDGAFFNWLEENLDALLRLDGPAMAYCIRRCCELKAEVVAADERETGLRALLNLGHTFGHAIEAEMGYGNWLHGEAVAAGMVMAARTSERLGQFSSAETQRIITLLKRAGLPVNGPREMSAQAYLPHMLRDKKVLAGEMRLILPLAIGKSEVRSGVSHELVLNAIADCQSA

[2] = target: T2, 3-dehydroquinate synthase (Escherichia coli K-12, UniProt P07639); assay: Inhibition constant against 3-dehydroquinate synthase
T2 sequence (P07639 whole entry): T1 sequence (whole entry)

[3] = target: T1, 3-dehydroquinate synthase (Escherichia coli K-12); assay: […] rate constant against 3-dehydroquinate synthase
[4] = target: T1, 3-dehydroquinate synthase (Escherichia coli K-12); assay: Rate constant against 3-dehydroquinate synthase

| Compound | inhibition [1] | Ki [2] | k off [3] | k on [4] |
| --- | --- | --- | --- | --- |
| O=C(O)C1(O)CC(O)CC(CP(=O)(O)O)C1 (centres undefined) | R | 540 nM | 0.00054 s⁻¹ | 1000 M⁻¹ s⁻¹ |
| O=C(O)C1(O)CC(O)C(O)C(CP(=O)(O)O)C1 (centres undefined) | R | 5.4 nM | 0.00075 s⁻¹ | 140000 M⁻¹ s⁻¹ |
| O=C(O)C1(O)CCC(O)C(CP(=O)(O)O)C1 (centres undefined) | R |  |  |  |
